Measurements from patent publication US10766888B1, “HMOX1 inducers” (Mitobridge Inc., priority 2019, dated 2020).
In brackets after ≈: the same amount, converted by molar mass.

Experiments:
[1] = tested on: Human Heme Oxygenase-1 (HMOX-1); assay: ELISA assay to measure human heme oxygenase-1 (HMOX-1) in HepG2 lysate; type: cell-based; conditions: for EC50: human HMOX1 protein level in HepG2 lysate, * = average of 2 or more EC50 determinations, NA = Not Active, read-out: EC50
Method in brief: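 HO-1 protein levels were read as fold change over DMSO-treated cells, with EC50 derived from these values. Quantitation used a chemiluminescent streptavidin-HRP capture ELISA, calibrated with an HO-1 standard series starting at 20 ng/ml, run at 20 °C. Samples were HepG2 lysates made with Triton X100/EDTA buffer and diluted 1:20.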

Kinetic solubility = type: physicochemical; conditions: Dulbecco's phosphate buffer saline (DPBS), aqueous buffer, kinetic from dmso stock, DPBS pH 7.4, 25° C., 200 μM test compound
Method in brief: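 Compound from 10 mM DMSO stock diluted to 200 μM final in DPBS pH 7.4 and, separately, in DMSO, in duplicate. Shaken 16 h at 25 °C, then centrifuged 20 min at 25 °C. Supernatant analysed by HPLC.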

hERG channel = hERG channel (Homo sapiens, UniProt Q12809); assay: hERG manual patch clamp assay; type: cell-based; conditions: HEK 293 cells stably expressing hERG channel, pH 7.35, 10 μM compound
hERG channel, sequence (Q12809 whole entry): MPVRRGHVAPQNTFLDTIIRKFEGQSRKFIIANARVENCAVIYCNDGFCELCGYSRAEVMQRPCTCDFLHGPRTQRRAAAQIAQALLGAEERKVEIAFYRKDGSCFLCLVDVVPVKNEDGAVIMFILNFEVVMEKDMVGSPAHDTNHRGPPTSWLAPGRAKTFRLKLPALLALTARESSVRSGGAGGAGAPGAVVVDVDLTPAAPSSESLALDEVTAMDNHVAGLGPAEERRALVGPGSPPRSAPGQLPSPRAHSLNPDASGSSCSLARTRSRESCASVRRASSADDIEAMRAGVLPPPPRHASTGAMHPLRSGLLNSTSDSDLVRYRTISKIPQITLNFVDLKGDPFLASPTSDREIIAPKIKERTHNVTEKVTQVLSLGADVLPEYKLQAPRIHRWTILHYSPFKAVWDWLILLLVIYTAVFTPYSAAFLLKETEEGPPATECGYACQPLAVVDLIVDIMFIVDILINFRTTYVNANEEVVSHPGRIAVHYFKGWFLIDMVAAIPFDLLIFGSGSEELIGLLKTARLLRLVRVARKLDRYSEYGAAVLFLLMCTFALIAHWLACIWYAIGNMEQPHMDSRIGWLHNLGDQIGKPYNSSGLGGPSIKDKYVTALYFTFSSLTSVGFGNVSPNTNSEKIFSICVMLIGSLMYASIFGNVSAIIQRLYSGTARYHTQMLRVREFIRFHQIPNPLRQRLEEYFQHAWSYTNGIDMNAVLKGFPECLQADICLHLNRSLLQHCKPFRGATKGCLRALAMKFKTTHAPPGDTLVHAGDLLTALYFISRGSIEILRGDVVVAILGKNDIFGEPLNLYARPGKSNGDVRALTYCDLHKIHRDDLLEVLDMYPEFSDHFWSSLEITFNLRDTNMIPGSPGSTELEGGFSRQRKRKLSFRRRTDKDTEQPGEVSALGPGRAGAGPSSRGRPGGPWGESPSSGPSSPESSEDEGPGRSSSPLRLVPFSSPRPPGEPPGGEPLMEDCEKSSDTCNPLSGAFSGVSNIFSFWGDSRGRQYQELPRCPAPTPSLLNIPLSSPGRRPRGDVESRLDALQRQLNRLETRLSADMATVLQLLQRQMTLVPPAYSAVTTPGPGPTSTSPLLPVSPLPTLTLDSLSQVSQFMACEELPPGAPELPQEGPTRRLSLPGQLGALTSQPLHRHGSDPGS
Procedure: Cell Lines and Cell Culture
HEK 293 cell line stably expressing hERG channel (Cat # K1236) was purchased from Invitrogen. The cells were cultured in 85% DMEM, 10% dialyzed FBS, 0.1 mM NEAA, 25 mM HEPES, 100 U/mL Penicillin-Streptomycin and 5 μg/mL Blasticidin and 400 μg/mL Geneticin. Cells were split using TrypLE™ Express about three times a week, and maintained between ˜40% to ˜80% confluence. Before the assay, the cells were transferred onto the coverslips at 5×10^5 cells/per 6 cm cell culture dish and induced with doxycycline at 1 μg/mL for 48 hours.
• 1) External solution (in mM): 132 NaCl, 4 KCl, 3 CaCl2, 0.5 MgCl2, 11.1 glucose, and 10 HEPES (pH adjusted to 7.35 with NaOH) • 2) Internal solution (in mM): 140 KCl, 2 MgCl2, 10 EGTA, 10 HEPES and 5 MgATP (pH adjusted to 7.35 with KOH) • 3) hERG currents were tested in presence of 10 μM compound concentration with final concentration of DMSO of 0.1%. Experimental Procedure • 1) Removed the coverslip from the cell culture dish and placed it on the microscope stage in bath chamber. • 2) Located a desirable cell using the 10× objective. Located the tip of the electrode under the microscope using the 10× objective by focusing above the plane of the cells. Once the tip was in focus, advanced the electrode downwards towards the cell using the coarse controls of the manipulator, while simultaneously moving the objective to keep the tip in focus. • 3) When directly over the cell, switched to the 40× objective and used the fine controls of the manipulator to approach the surface of the cell in small steps. • 4) Applied gentle suction through the side-port of the electrode holder to form a gigaohm seal. • 5) Used the Cfast to remove the capacity current that was in coincidence with the voltage step. Obtained the whole cell configuration by applying repetitive, brief, strong suction until the membrane patch ruptured. • 6) Set membrane potential to −60 mV at this point to ensure that hERG channels were not • open. The spikes of capacity current should then be cancelled using the Cslow on the amplifier. 7) Set holding potential to −90 mV for 500 ms; recorded current at 50 kHz and filtered at 10 kHz. Leaking current was tested at −80 mV for 500 ms. • 8) The hERG current was elicited by depolarizing at +30 mV for 4.8 seconds and then the voltage was taken back to −50 mV for 5.2 seconds to remove the inactivation and observe the deactivating tail current. The maximum amount of tail current size was used to determine hERG current amplitude. • 9) Recorded current for 120 seconds to assess the current stability. Only stable cells with recording parameters above threshold were applied for the compound administrations. • 10) Firstly vehicle control was applied to the cells to establish the baseline. […] In order to ensure the good performance of cultured cells and operations, the positive control, Dofetilide, with 5 dose concentration was also used to test the same batch of cells. Data Analysis
The following criteria were used to determine data acceptability. • 1) Initial seal resistance >1 GΩ; • 2) Leak currents <50% of the control peak tail currents at any time; • 3) The peak tail amplitude >250 pA; • 4) Membrane resistance Rm>500 MΩ; • 5) Access resistance (Ra)<10 MΩ; • 6) Apparent run-down of peak current <2.5% per min.
Data that met the above criteria for hERG current quality were further analyzed as the following steps. • 1) Percent hERG current inhibition was calculated using the following equation. • Note: PatchMaster or Clampfit software was used to extract the peak current from the original data.
[formula] • 2) The dose response curve of test compounds was plotted with percentage of hERG current inhibition against the concentration of test compounds using Graphpad Prism 6.0, and fit to a sigmoid dose-response curve with a variable slope.

EC50 [1] [nM]	solubility at 16 h (Kinetic solubility) [µM]	Maximum Fold induction ([1]; fold change of human HMOX1 protein level relative to DMSO control, HepG2) [fold]	Compound	inhibition at 10 µM (hERG channel) [%]
1200	4.7 (≈ 2.07 µg/mL)	–	COCCOc1ccc2nc(Nc3nc4cc(C(=O)NOCCO)ccc4n3C)oc2c1 [Example 128, N-(2-hydroxyethoxy)-2-((6-(2-methoxyethoxy)benzo[d]oxazol-2-yl)amino)-1-methyl-1H-benzo[d]imidazole-5-carboxamide]	18
1100	7.3 (≈ 3.18 µg/mL)	–	Cn1c(Nc2nc3ccc(OC(F)(F)F)cc3o2)nc2cc(C(=O)NCCO)ccc21 [Example 53, N-(2-hydroxyethyl)-1-methyl-2-((6-(trifluoromethoxy)benzo[d]oxazol-2-yl)amino)-1H-benzo[d]imidazole-5-carboxamide]	70
2900	–	–	Cn1c(Nc2nc3cc(F)ccc3[nH]2)nc2cc(C(=O)O)ccc21 [Example 73, 2-((5-fluoro-1H-benzo[d]imidazol-2-yl)amino)-1-methyl-1H-benzo[d]imidazole-5-carboxylic acid]	5
1700	7.7 (≈ 3.62 µg/mL)	–	COCCOc1ccc2nc(Nc3nc4cc(C(=O)NCCOCCO)ccc4n3C)oc2c1 [Example 58, N-(2-(2-hydroxyethoxy)ethyl)-2-((6-(2-methoxyethoxy)benzo[d]oxazol-2-yl)amino)-1-methyl-1H-benzo[d]imidazole-5-carboxamide]	11
1300	6.9 (≈ 3.21 µg/mL)	–	Cn1c(Nc2nc3ccc(N4CCCC4)cc3o2)nc2cc(C(=O)NCCOCCO)ccc21 [Example 137, N-(2-(2-hydroxyethoxy)ethyl)-1-methyl-2-((6-(pyrrolidin-1-yl)benzo[d]oxazol-2-yl)amino)-1H-benzo[d]imidazole-5-carboxamide]	18
700	11.7 (≈ 4.11 µg/mL)	–	Cn1c(Nc2nc3ccccc3o2)nc2cc(C(=O)NCCO)ccc21 [Example 16, 2-(benzo[d]oxazol-2-ylamino)-N-(2-hydroxyethyl)-1-methyl-1H-benzo[d]imidazole-5-carboxamide]	35
–	10.5 (≈ 4.14 µg/mL)	–	CN(C)CCONC(=O)c1ccc2c(c1)nc(Nc1nc3ccccc3o1)n2C [Example 123, 2-(benzo[d]oxazol-2-ylamino)-N-(2-(dimethylamino)ethoxy)-1-methyl-1H-benzo[d]imidazole-5-carboxamide]	54
1400	9 (≈ 4.06 µg/mL)	–	CN(C)CC(=O)NCCONC(=O)c1ccc2c(c1)nc(Nc1nc3ccccc3o1)n2C [Example 121, 2-(benzo[d]oxazol-2-ylamino)-N-(2-(2-(dimethylamino)acetamido)ethoxy)-1-methyl-1H-benzo[d]imidazole-5-carboxamide]	66
5100	16.2 (≈ 6.06 µg/mL)	–	Cn1c(Nc2nc3ccc(OC(F)F)cc3o2)nc2cc(C(=O)O)ccc21 [Example 62, 2-((6-(difluoromethoxy)benzo[d]oxazol-2-yl)amino)-1-methyl-1H-benzo[d]imidazole-5-carboxylic acid]	13
370	11.6 (≈ 5.05 µg/mL)	–	COCCn1c(Nc2nc3cc(OC(F)(F)F)ccc3[nH]2)nc2cc(C(=O)O)ccc21 [Example 75, 1-(2-methoxyethyl)-2-((5-(trifluoromethoxy)-1H-benzo[d]imidazol-2-yl)amino)-1H-benzo[d]imidazole-5-carboxylic acid]	9
660	< 5	–	COCCNC(=O)c1ccc2c(c1)nc(Nc1nc3ccc(F)cc3o1)n2C [Example 69, 2-((6-fluorobenzo[d]oxazol-2-yl)amino)-N-(2-methoxyethyl)-1-methyl-1H-benzo[d]imidazole-5-carboxamide]	38
2300	4.2 (≈ 1.88 µg/mL)	6.25	COCCNC(=O)c1ccc2c(c1)nc(Nc1nc3cc(OC(F)(F)F)ccc3[nH]1)n2C [Example 14, N-(2-methoxyethyl)-1-methyl-2-((5-(trifluoromethoxy)-1H-benzo[d]imidazol-2-yl)amino)-1H-benzo[d]imidazole-5-carboxamide]	87
800	8 (≈ 3.71 µg/mL)	–	Cn1c(Nc2nc3ccc(C(F)(F)F)cc3o2)nc2cc(C(=O)NCCOCCO)ccc21 [Example 34]	61
–	–	–	CC1CCc2nc(Nc3nc4cc(C(=O)NCCOCCO)ccc4n3C)sc2C1 (centres unmarked) [Ex 7, N-(2-(2-hydroxyethoxy)ethyl)-1-methyl-2-((6-methyl-4,5,6,7-tetrahydrobenzo[d]thiazol-2-yl)amino)-1H-benzo[d]imidazole-5-carboxamide]	6
1800	–	–	CN(C)CC(=O)NCCNC(=O)c1ccc2c(c1)nc(Nc1nc3ccccc3o1)n2C [Example 19, 2-(benzo[d]oxazol-2-ylamino)-N-(2-(2-(dimethylamino)acetamido)ethyl)-1-methyl-1H-benzo[d]imidazole-5-carboxamide]	29
500	1.4 (≈ 0.607 µg/mL)	–	COCCNC(=O)c1ccc2c(c1)nc(Nc1nc3ccc(C(F)(F)F)cc3o1)n2C [Example 32, N-(2-methoxyethyl)-1-methyl-2-((6-(trifluoromethyl)benzo[d]oxazol-2-yl)amino)-1H-benzo[d]imidazole-5-carboxamide]	–
1400	6.7 (≈ 2.69 µg/mL)	–	CC1CCc2nc(Nc3nc4cc(C(=O)NOCCO)ccc4n3C)sc2C1 (centres unmarked) [Example 131, N-(2-hydroxyethoxy)-1-methyl-2-((6-methyl-4,5,6,7-tetrahydrobenzo[d]thiazol-2-yl)amino)-1H-benzo[d]imidazole-5-carboxamide]	–
1500	1.2 (≈ 0.472 µg/mL)	–	CC(C)c1ccc2nc(Nc3nc4cc(C(=O)NCCO)ccc4n3C)oc2c1 [Example 61, N-(2-hydroxyethyl)-2-((6-isopropylbenzo[d]oxazol-2-yl)amino)-1-methyl-1H-benzo[d]imidazole-5-carboxamide]	–
3100	> 20	–	Cn1c(Nc2nc3ccc(OCCO)cc3o2)nc2cc(C(=O)NCCO)ccc21 [Example 103, 2-((6-(2-hydroxyethoxy)benzo[d]oxazol-2-yl)amino)-N-(2-hydroxyethyl)-1-methyl-1H-benzo[d]imidazole-5-carboxamide]	–
700	0.9 (≈ 0.367 µg/mL)	–	COCCNC(=O)c1ccc2c(c1)nc(Nc1nc3ccc(C(C)C)cc3o1)n2C [Example 60, 2-((6-isopropylbenzo[d]oxazol-2-yl)amino)-N-(2-methoxyethyl)-1-methyl-1H-benzo[d]imidazole-5-carboxamide]	–
500	2.1 (≈ 0.948 µg/mL)	–	Cn1c(Nc2nc3ccc(OC(F)(F)F)cc3o2)nc2cc(C(=O)NOCCO)ccc21 [Example 126, N-(2-hydroxyethoxy)-1-methyl-2-((6-(trifluoromethoxy)benzo[d]oxazol-2-yl)amino)-1H-benzo[d]imidazole-5-carboxamide]	–
